Oligonucleotides are written 5' to 3', each unit as a sugar letter and its base; * is a phosphorothioate linkage, no mark a phosphodiester; rarer units and linkages stand in square brackets, end groups in braces. Plain capitals give the bases only. d = 2'-deoxy (DNA); r = 2'-OH (RNA)

The target in data set [1] is UBE2L6. The experiment in a line: reporter assay of Huesken 2005. The conditions noted are these: siRNA.
A short description of data set [2]: reporter assay of Huesken 2005. The conditions noted are these: siRNA. In general terms: Reporter assays use an easily measured gene product as a stand-in for the process of interest.
Also: test concentration or dose not given here.

In the case of “sense rUrGrGrUrGrUrGrGrCrArCrGrCrUrCrUrCrCrUdTdT / antisense rArGrGrArGrArGrCrGrUrGrCrCrArCrArCrCrAdGdG”, the normalised inhibition (eCFP-eYFP dual reporter) in data set [1] is 89.5%.
Same read-out and setting: with “sense rUrCrArArUrGrUrGrCrUrGrGrUrGrArArUrArGdTdT / antisense rCrUrArUrUrCrArCrCrArGrCrArCrArUrUrGrAdGdG” the figure was 69.1%.
Still for that read-out and setting: with “sense rGrCrGrArUrGrArUrGrCrCrArArUrGrUrCrCrUdTdT / antisense rArGrGrArCrArUrUrGrGrCrArUrCrArUrCrGrCdTdG” the figure was 107%; with “sense rCrArArArUrUrCrArCrArArCrCrArArGrArUrCdTdT / antisense rGrArUrCrUrUrGrGrUrUrGrUrGrArArUrUrUrGdAdT”, 85.9%.
Consider “sense rUrCrCrUrGrGrArGrGrCrCrCrUrCrArArUrGrUdTdT / antisense rArCrArUrUrGrArGrGrGrCrCrUrCrCrArGrGrAdCdT”, for which the normalised inhibition (eCFP-eYFP dual reporter) in data set [1] turned out to be 74.2%.
On the same count and under the same terms, as for “sense rCrArUrCrArGrCrArGrUrGrArGrArArCrUrGrGdTdT / antisense rCrCrArGrUrUrCrUrCrArCrUrGrCrUrGrArUrGdAdT”, the figure is 65.7%.
On the same count and under the same terms, with “sense rArUrCrArGrCrUrUrCrCrCrGrCrCrGrGrArGrUdTdT / antisense rArCrUrCrCrGrGrCrGrGrGrArArGrCrUrGrArUdGdC” the figure was 52.3%; with “sense rGrUrCrCrUrGrGrUrGrUrGrGrCrArCrGrCrUrCdTdT / antisense rGrArGrCrGrUrGrCrCrArCrArCrCrArGrGrArCdAdT”, 74.2%; with “sense rGrUrUrCrArCrCrCrUrCrCrGrArUrUrCrGrGrAdTdT / antisense rUrCrCrGrArArUrCrGrGrArGrGrGrUrGrArArCdTdC”, 61.1%.
On the same count and under the same terms, with “sense rCrGrCrUrCrUrCrCrUrCrCrUrArCrCrCrGrArCdTdT / antisense rGrUrCrGrGrGrUrArGrGrArGrGrArGrArGrCrGdTdG” the figure was 73.7%; with “sense rUrCrUrCrCrUrCrCrUrArCrCrCrGrArCrCrArAdTdT / antisense rUrUrGrGrUrCrGrGrGrUrArGrGrArGrGrArGrAdGdC”, 79.9%; with “sense rUrCrArUrCrArGrCrArGrUrGrArGrArArCrUrGdTdT / antisense rCrArGrUrUrCrUrCrArCrUrGrCrUrGrArUrGrAdTdG”, 61.3%.
For “sense rCrCrUrGrUrCrCrArGrCrGrArUrGrArUrGrCrCdTdT / antisense rGrGrCrArUrCrArUrCrGrCrUrGrGrArCrArGrGdTdT”, the normalised inhibition (eCFP-eYFP dual reporter) in data set [1] was 77.6%.
Still for that read-out and setting: as for “sense rArGrGrGrArGrCrCrCrCrUrGrCrGrGrArUrGrGdTdT / antisense rCrCrArUrCrCrGrCrArGrGrGrGrCrUrCrCrCrUdGdA”, the figure is 60.1%; as for “sense rCrCrGrArArGrArGrUrUrCrArCrCrCrUrCrCrGdTdT / antisense rCrGrGrArGrGrGrUrGrArArCrUrCrUrUrCrGrGdCdA”, 62.6%; as for “sense rCrCrArCrCrCrCrArArCrGrUrGrGrArCrGrArGdTdT / antisense rCrUrCrGrUrCrCrArCrGrUrUrGrGrGrGrUrGrGdTdA”, 67.6%.
Still for that read-out and setting: with “sense rGrArUrUrUrGrCrCrUrGrCrCrCrArUrCrArUrCdTdT / antisense rGrArUrGrArUrGrGrGrCrArGrGrCrArArArUrCdTdG” the figure was 71.3%.
The same measure, in the same setting: with “sense rUrArCrCrArCrCrCrCrArArCrGrUrGrGrArCrGdTdT / antisense rCrGrUrCrCrArCrGrUrUrGrGrGrGrUrGrGrUrAdGdA” the figure was 37.4%.
Turning to “sense rArGrUrArUrCrCrGrUrUrCrArArGrCrCrUrCrCdTdT / antisense rGrGrArGrGrCrUrUrGrArArCrGrGrArUrArCrUdCdC”, the normalised inhibition (eCFP-eYFP dual reporter) in data set [1] was 53.7%.
Take “sense rArUrCrArGrCrArGrUrGrArGrArArCrUrGrGrAdTdT / antisense rUrCrCrArGrUrUrCrUrCrArCrUrGrCrUrGrArUdGdA”: the normalised inhibition (eCFP-eYFP dual reporter) in data set [1] came to 82.9%.
Same read-out and setting: with “sense rArArUrGrCrCrGrArArGrArGrUrUrCrArCrCrCdTdT / antisense rGrGrGrUrGrArArCrUrCrUrUrCrGrGrCrArUrUdCdT” the figure was 51.6%.
Still for that read-out and setting: as for “sense rArCrCrUrGrCrGrCrArUrCrArGrCrUrUrCrCrCdTdT / antisense rGrGrGrArArGrCrUrGrArUrGrCrGrCrArGrGrUdTdG”, the figure is 70.9%.
The same measure, in the same setting: as for “sense rArUrUrCrArCrArArCrCrArArGrArUrCrUrArCdTdT / antisense rGrUrArGrArUrCrUrUrGrGrUrUrGrUrGrArArUdTdT”, the figure is 51%; as for “sense rUrGrCrCrGrArArGrArGrUrUrCrArCrCrCrUrCdTdT / antisense rGrArGrGrGrUrGrArArCrUrCrUrUrCrGrGrCrAdTdT”, 59.9%; as for “sense rCrUrGrGrArGrGrCrCrCrUrCrArArUrGrUrGrCdTdT / antisense rGrCrArCrArUrUrGrArGrGrGrCrCrUrCrCrArGdGdA”, 48.2%.
As to “sense rCrArCrArGrArArUrCrCrGrGrArGrCrUrGrUrUdTdT / antisense rArArCrArGrCrUrCrCrGrGrArUrUrCrUrGrUrGdTdC”, the normalised inhibition (eCFP-eYFP dual reporter) in data set [1] was found to be 97.8%.
Same read-out and setting: as for “sense rGrGrCrArCrGrCrUrCrUrCrCrUrCrCrUrArCrCdTdT / antisense rGrGrUrArGrGrArGrGrArGrArGrCrGrUrGrCrCdAdC”, the figure is 62.5%.
The same measure, in the same setting: with “sense rArCrCrCrGrArCrCrArArCrCrUrCrCrCrUrArCdTdT / antisense rGrUrArGrGrGrArGrGrUrUrGrGrUrCrGrGrGrUdAdG” the figure was 64%.
As to “sense rArGrArArGrArArArCrUrUrGrCrUrCrCrArGrAdTdT / antisense rUrCrUrGrGrArGrCrArArGrUrUrUrCrUrUrCrUdCdA”, the normalised inhibition (eCFP-eYFP dual reporter) in data set [2] came to 90%.
Same read-out and setting: with “sense rCrArCrCrArGrArGrUrGrGrArArArCrUrCrArCdTdT / antisense rGrUrGrArGrUrUrUrCrCrArCrUrCrUrGrGrUrGdAdC” the figure was 92.8%; with “sense rUrGrUrGrGrArCrUrCrUrGrArGrArArGrArArAdTdT / antisense rUrUrUrCrUrUrCrUrCrArGrArGrUrCrCrArCrAdAdG”, 85.5%.
As for “sense rUrCrCrCrCrUrGrCrCrUrGrUrCrArGrGrGrGrUdTdT / antisense rArCrCrCrCrUrGrArCrArGrGrCrArGrGrGrGrAdAdA”, in data set [2], the normalised inhibition (eCFP-eYFP dual reporter) came out at 42.2%.
The same measure, in the same setting: as for “sense rArCrUrGrArUrGrUrUrCrCrUrUrGrUrGrGrArCdTdT / antisense rGrUrCrCrArCrArArGrGrArArCrArUrCrArGrUdGdA”, the figure is 55.2%.
Still for that read-out and setting: with “sense rCrArArUrCrCrGrCrCrCrCrArCrCrCrUrUrUrAdTdT / antisense rUrArArArGrGrGrUrGrGrGrGrCrGrGrArUrUrGdGdG” the figure was 80.2%; with “sense rGrCrCrUrUrCrArUrCrCrArCrCrUrUrCrCrCrUdTdT / antisense rArGrGrGrArArGrGrUrGrGrArUrGrArArGrGrCdAdG”, 85.7%.
The same measure, in the same setting: as for “sense rUrGrCrCrCrArUrUrGrUrGrUrUrCrCrCrUrUrGdTdT / antisense rCrArArGrGrGrArArCrArCrArArUrGrGrGrCrAdGdG”, the figure is 95.4%.
As for “sense rCrCrCrGrGrGrGrCrUrGrArGrArArArGrUrUrCdTdT / antisense rGrArArCrUrUrUrCrUrCrArGrCrCrCrCrGrGrGdAdT”, the normalised inhibition (eCFP-eYFP dual reporter) in data set [2] came out at 85.4%.
Same read-out and setting: with “sense rUrUrGrCrUrCrUrCrUrGrGrArGrUrCrUrCrCrCdTdT / antisense rGrGrGrArGrArCrUrCrCrArGrArGrArGrCrArAdGdA” the figure was 58.4%; with “sense rArGrArCrUrArCrArGrUrUrUrCrUrUrUrCrCrCdTdT / antisense rGrGrGrArArArGrArArArCrUrGrUrArGrUrCrUdGdC”, 55.6%.
Still for that read-out and setting: as for “sense rCrCrArGrGrGrGrArCrArGrGrCrArGrCrArGrGdTdT / antisense rCrCrUrGrCrUrGrCrCrUrGrUrCrCrCrCrUrGrGdGdC”, the figure is 45.6%; as for “sense rUrCrArUrUrGrUrUrCrCrUrGrUrGrArArCrUrGdTdT / antisense rCrArGrUrUrCrArCrArGrGrArArCrArArUrGrAdAdA”, 66.7%; as for “sense rArGrArArCrArCrCrCrArGrGrArArUrUrCrUrUdTdT / antisense rArArGrArArUrUrCrCrUrGrGrGrUrGrUrUrCrUdGdT”, 84.5%.
The same measure, in the same setting: with “sense rGrArGrUrCrArArArGrGrUrCrArCrCrArGrArGdTdT / antisense rCrUrCrUrGrGrUrGrArCrCrUrUrUrGrArCrUrCdCdC” the figure was 85.9%.
On to “sense rUrGrUrUrCrCrUrUrGrUrGrGrArCrUrCrUrGrAdTdT / antisense rUrCrArGrArGrUrCrCrArCrArArGrGrArArCrAdTdC”, for which, in data set [2], the normalised inhibition (eCFP-eYFP dual reporter) stood at 94.3%.
As to “sense rUrUrUrGrCrArGrUrUrGrGrArGrArUrUrCrArGdTdT / antisense rCrUrGrArArUrCrUrCrCrArArCrUrGrCrArArAdCdG”, the normalised inhibition (eCFP-eYFP dual reporter) in data set [2] stood at 48.6%.
On the same count and under the same terms, as for “sense rGrGrCrUrCrUrGrUrCrUrCrUrCrUrGrCrCrArCdTdT / antisense rGrUrGrGrCrArGrArGrArGrArCrArGrArGrCrCdAdC”, the figure is 45.8%.
As to “sense rUrGrUrGrArCrCrUrCrCrArUrCrUrArCrUrCrUdTdT / antisense rArGrArGrUrArGrArUrGrGrArGrGrUrCrArCrAdGdG”, the normalised inhibition (eCFP-eYFP dual reporter) in data set [2] was determined as 96.8%.
On the same count and under the same terms, as for “sense rCrArGrGrGrGrCrArGrCrGrGrGrArGrArGrArGdTdT / antisense rCrUrCrUrCrUrCrCrCrGrCrUrGrCrCrCrCrUrGdAdA”, the figure is 66.2%.
Same read-out and setting: with “sense rCrCrUrGrUrCrArGrGrGrGrUrCrGrGrArGrUrGdTdT / antisense rCrArCrUrCrCrGrArCrCrCrCrUrGrArCrArGrGdCdA” the figure was 72.5%.

The values are drawn from the OligoGym collection.
